Assay results reported in US9598431B1, “Compounds useful for inhibiting ROR-gamma-t” (Eli Lilly and Company, priority 2015, dated 2017).
Where two headings read alike, the source gives them in different places.

Experiments:
IL-17 secretion in PBMC = assay: PBMC IL-17 secretion ELISA; type: cell-based; settings: anti-CD3/anti-CD28/IL-23 stimulated human PBMC, mean ± SEM, read-out: hPBMC IL-17 ELISA
Experimental: Following the incubation period the plates are spun at 200×g for five minutes. Supernatants are diluted 1:1 with equal volume 1% BSA/PBS and tested for IL-17 with a human IL-17 ELISA kit from R&D system (catalog #D317E) according to the protocol provided with the kit with one exception—the colorimetric substrate OPD (o-phenylenediamine dihydrochloride, Sigma Cat #P6912) is used instead of the substrate supplied in the kit. Absorbance at 492 nm is measured with the Envision multi-label plate reader. A492 values are converted to concentration of IL-17 based on the IL-17 standard curve as shown below:
pg/mL IL-17=EC50*[[(Top−Bottom)/(A492−Bottom)]−1](1/−Hill). IC50's for inhibition of IL-17 secretion is calculated based on converted values using a standard 4-parameter fit with maximum inhibition determined from the average values of wells with no added stimulants nor compounds and minimum inhibition from the average values of wells with stimulants alone and no added compound.

[1] = test system: GPI induced arthritis in DBA/1 mice; assay: Glucose-6-phosphate isomerase (GPI) induced arthritis model; type: in vivo, mouse; settings: male DBA/1 mice, 1000 mg/Kg orally once daily
Experimental: The GPI induced arthritis model is adapted from K. Iwanami et al Arthritis Rheumatism 58, 754-763, 2008 and D. Schubert et al. J Immunology 172, 4503-4509, 2004. Mice (8-9 week old male DBA/1 mice) (Harlan) are randomly assigned into treatment groups based on body weights collected on the day of immunization (day 0). On the day of immunization (day 0), a 1:1 (v:v) mixture of recombinant human GPI (diluted to 4 mg/mL in PBS, Gibco) and complete Freund's adjuvant (CFA, Sigma) is mixed on a high speed homogenizer (Omni) for 40 minutes in a cold room. A final concentration of 2 mg/mL GPI is achieved in the emulsion. Mice are injected at the base of the tail (2 sites of injection, subcutaneously, 100 μL each site) with the GPI emulsion. Test compounds are dosed orally starting on the same day as immunization (day 0). Starting on day 0, each paw is scored for severity of joint swelling based on a 0 to 3 scoring system (See K. Iwanami et al Arthritis Rheumatism 58, 754-763, 2008. The clinical score represents the total score of all 4 paws (maximum score=12). Clinical scores are assessed on days 0, 2, 4, 7, 8, 9, 10, 11, 12, 14, 16, 18, and 21.
The AUC is calculated by a trapezoid method for clinical score over time from the day of immunization (day 0) to day 21. Test p-values were derived from Student's t-test.

| SMILES | IC50 (IL-17 secretion in PBMC; 48 hours) | IC50 (IL-17 secretion in PBMC; Homo sapiens, PBMC, 48 h) | also measured |
| --- | --- | --- | --- |
| CCS(=O)(=O)c1ccc(CNC(=O)c2cc3c(s2)C2(CCN(C(C)c4cnc(C(F)(F)F)nc4)CC2)O[C@H](C)C3)nc1 (single isomer, unassigned; isomer 2) [Example 5, (5R′)—N-{[5-(Ethylsulfonyl)pyridine-2-yl]methyl}-5′-methyl-1-{1-[2-(trifluoromethyl)pyrimidin-5-yl]ethyl}-4′,5′-dihydrospiro[piperidine-4,7′thieno[2,3-C]pyran]-2′-carboxamide isomer 2] | 30.5 ± 29.3 nM |  |  |
| CCS(=O)(=O)c1ccc(CNC(=O)c2cc3c(s2)C2(CCN(C(C)c4cnc(C(F)(F)F)nc4)CC2)OC(C)C3)nc1 (centres unmarked) [Example 1, N-{[5-(Ethylsulfonyl)pyridine-2-yl]methyl}-5′-methyl-1-{1-[2-(trifluoromethyl)pyrimidin-5-yl]ethyl}-4′,5′-dihydrospiro[piperidine-4,7′thieno[2,3-C]pyran]-2′-carboxamide] |  | 77.3 nM |  |
| CCS(=O)(=O)c1ccc(CNC(=O)c2cc3c(s2)C2(CCN([C@@H](C)c4cnc(C(F)(F)F)nc4)CC2)O[C@@H](C)C3)nc1 [Example 2, (5S′)—N-{[5-(Ethylsulfonyl)pyridine-2-yl]methyl}-5′-methyl-1-{(1S)-1-[2-(trifluoromethyl)pyrimidin-5-yl]ethyl}-4′,5′-dihydrospiro[piperidine-4,7′thieno[2,3-C]pyran]-2′-carboxamide] |  | 33.7 ± 33.1 nM |  |
| CCS(=O)(=O)c1ccc(CNC(=O)c2cc3c(s2)C2(CCN(C(C)c4cnc(C(F)(F)F)nc4)CC2)O[C@H](C)C3)nc1 (single isomer, unassigned; isomer 1) [Example 4, (5R′)—N-{[5-(Ethylsulfonyl)pyridine-2-yl]methyl}-5′-methyl-1-{1-[2-(trifluoromethyl)pyrimidin-5-yl]ethyl}-4′,5′-dihydrospiro[piperidine-4,7′thieno[2,3-C]pyran]-2′-carboxamide isomer 1] | 106 nM |  |  |
| CCS(=O)(=O)c1ccc(CNC(=O)c2cc3c(s2)C2(CCN([C@H](C)c4cnc(C(F)(F)F)nc4)CC2)O[C@@H](C)C3)nc1 [Example 3, (5S′)—N-{[5-(Ethylsulfonyl)pyridine-2-yl]methyl}-5′-methyl-1-{(1R)-1-[2-(trifluoromethyl)pyrimidin-5-yl]ethyl}-4′,5′-dihydrospiro[piperidine-4,7′thieno[2,3-C]pyran]-2′-carboxamide] |  | 20 ± 12.6 nM | severity of paw swelling and mean clinical scores ([1]; compared to the vehicle group): reduces severity of paw swelling and maintains lower mean clinical scores; reduction in clinical score AUC ([1]; day 0 to day 21, compared to the vehicle group): 75%; Clinical Score AUC (mean ± SEM) ([1]; day 0 to day 21, n=8/group): 22.20 ± 8.68 |
